Results published in US20170291890A1 (Epizyme, Inc., priority 2014, published 2017).

Molecular target: T1, KDM4C (Homo sapiens, UniProt Q9H3R0)
T1 construct: N-terminal GST-tagged KDM4C^2-372 was purchased from BPS Biosciences; GST (N); purchased BPS Biosciences
T1 sequence (Q9H3R0 2-372): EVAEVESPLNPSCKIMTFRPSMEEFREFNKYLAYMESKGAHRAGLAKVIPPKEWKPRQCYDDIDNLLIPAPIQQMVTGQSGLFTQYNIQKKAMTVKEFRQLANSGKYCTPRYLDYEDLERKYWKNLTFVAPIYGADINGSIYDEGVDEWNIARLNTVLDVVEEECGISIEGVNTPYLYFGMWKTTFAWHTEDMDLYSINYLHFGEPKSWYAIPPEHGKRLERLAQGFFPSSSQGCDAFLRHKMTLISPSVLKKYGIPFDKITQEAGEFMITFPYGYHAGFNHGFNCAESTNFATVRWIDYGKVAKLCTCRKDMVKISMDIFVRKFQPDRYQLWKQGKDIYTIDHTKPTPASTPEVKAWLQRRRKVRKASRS
Test: KDM4C Assay (SAMDI mass spectrometry demethylase assay)
Format: biochemical
Conditions: N-terminal GST-tagged KDM4C 2-372; class symbols; read-out: 4C IC50
Method in brief: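 GST-tagged KDM4C 2-372 (5 nM) preincubated 30 min with compound, then H3K9me3 biotinylated peptide (500 nM) and 2-oxoglutarate (15 μM) added in HEPES pH 8.0 with ascorbate, Fe(II), TCEP; 150 min at 25 °C, formic-acid quench. Conversion by SAMDI mass spectrometry from substrate/product peak AUC; IC50 from dose-response.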

| Compound | IC50 |
| --- | --- |
| Cc1nn(CCN(C)C)cc1Nc1cnccc1C(=O)O [Compound 107, 3-(1-(2-(dimethylamino)ethyl)-3-methyl-1H-pyrazol-4-ylamino) isonicotinic acid] | 1000 to 10000 nM |
| COc1ccccc1-n1cc(C)c(Nc2cnccc2C(=O)O)n1 [Compound 63, 3-((1-(2-methoxyphenyl)-4-methyl-1H-pyrazol-3-yl)amino) isonicotinic acid] | 100 to 1000 nM |
| CC(C)n1nc(-c2ccccc2)cc1Nc1cnccc1C(=O)O [Compound 22, 3-((1-Isopropyl-3-phenyl-1H-pyrazol-5-yl)amino)isonicotinic acid] | 100 to 1000 nM |
| Cc1c(Nc2cnccc2C(=O)O)cnn1C1CCNCC1 [Compound 68, 3-((5-methyl-1-(piperidin-4-yl)-1H-pyrazol-4-yl)amino)isonicotinic acid] | 100 to 1000 nM |
| Cc1nn(-c2ccccc2)cc1Nc1cnccc1C(=O)O [Compound 19, 3-((3-Methyl-1-phenyl-1H-pyrazol-4-yl)amino)isonicotinic acid] | 100 to 1000 nM |
| Cc1nn(C2CCNCC2)cc1Nc1cnccc1C(=O)O [Compound 69, 3-((3-methyl-1-(piperidin-4-yl)-1H-pyrazol-4-yl)amino) isonicotinic acid] | 1000 to 10000 nM |
| Cn1cc(-c2ccccc2F)c(Nc2cnccc2C(=O)O)n1 [Compound 11, 3-((4-(2-Fluorophenyl)-1-methyl-1H-pyrazol-3-yl)amino) isonicotinic acid] | 100 to 1000 nM |
| O=C(O)c1ccncc1Nc1nn(C2CCOCC2)cc1-c1ccccc1 [Compound 72, 3-((4-phenyl-1-(tetrahydro-2H-pyran-4-yl)-1H-pyrazol-3-yl)amino)isonicotinic acid] | 1000 to 10000 nM |
| CN(C)CCCn1cc(-c2ccccc2)c(Nc2cnccc2C(=O)O)n1 [Compound 51, 3-((1-(3-(dimethylamino)propyl)-4-phenyl-1H-pyrazol-3-yl)amino) isonicotinic acid] | 100 to 1000 nM |
| Cn1nc(-c2ccccc2)cc1Nc1cnccc1C(=O)O [Compound 6] | 1000 to 10000 nM |
| O=C(O)c1ccncc1Nc1cc(-c2ccccc2)nn1[C@H]1CC[C@@H](O)CC1 [Compound 40, 3-((1-((cis)-4-Hydroxycyclohexyl)-3-phenyl-1H-pyrazol-5-yl)amino)isonicotinic acid] | 1000 to 10000 nM |
| Cn1ncc(-c2cccc(F)c2)c1Nc1cnccc1C(=O)O [Compound 10, 3-((4-(3-Fluorophenyl)-1-methyl-1H-pyrazol-5-yl)amino) isonicotinic acid] | 1000 to 10000 nM |
| Cn1cc(-c2ccccc2)c(Nc2cnccc2C(=O)O)n1 [Compound 3] | 1000 to 10000 nM |
| Cn1nc(-c2ccc(Cl)cc2)cc1Nc1cnccc1C(=O)O [Compound 24, 3-((3-(4-Chlorophenyl)-1-methyl-1H-pyrazol-5-yl)amino) isonicotinic acid] | 1000 to 10000 nM |
| N[C@H]1CC[C@H](n2nc(-c3ccccc3)cc2Nc2cnccc2C(=O)O)CC1 [Compound 38, 3-((1-((trans)-4-aminocyclohexyl)-3-phenyl-1H-pyrazol-5-yl)amino)isonicotinic acid] | 10000 to 100000 nM |
| Cc1c(Nc2cnccc2C(=O)O)cnn1C1CCN(C(=O)c2ccccc2)CC1 [Compound 98, 3-(1-(1-benzoylpiperidin-4-yl)-5-methyl-1H-pyrazol-4-ylamino) isonicotinic acid] | 100 to 1000 nM |
| O=C(O)c1ccncc1Nc1c(-c2ccccc2)cnn1CCN1CCC(F)(F)CC1 [Compound 15, 3-((1-(2-(4,4-difluoropiperidin-1-yl)ethyl)-4-phenyl-1H-pyrazol-5-yl)amino)isonicotinic acid] | 10000 to 100000 nM |
| O=C(O)c1ccncc1Nc1nn(-c2ccccc2)cc1-c1ccccc1 [Compound 42, 3-((1,4-diphenyl-1H-pyrazol-3-yl)amino)isonicotinic acid] | 100 to 1000 nM |
| CNC(=O)c1ccc(-n2ncc(Nc3cnccc3C(=O)O)c2C)cc1 [Compound 58, 3-((5-methyl-1-(4-(methylcarbamoyl)phenyl)-1H-pyrazol-4-yl)amino) isonicotinic acid] | 1 to 100 nM |
| O=C(O)c1ccncc1Nc1cc(-c2ccccc2)nn1-c1ccncc1 [Compound 56, 3-((3-phenyl-1-(pyridin-4-yl)-1H-pyrazol-5-yl)amino) isonicotinic acid] | 100 to 1000 nM |

Now from value to molecule:

| IC50 | Compound |
| --- | --- |
| 1 to 100 nM | CN(C)CCn1cc(-c2ccccc2)c(Nc2cnccc2C(=O)O)n1 [Compound 64, 3-((1-(2-(dimethylamino)ethyl)-4-phenyl-1H-pyrazol-3-yl)amino)isonicotinic acid] |
| 100 to 1000 nM | Cn1cc(-c2ccc(F)cc2)c(Nc2cnccc2C(=O)O)n1 [Compound 7, 3-((4-(4-Fluorophenyl)-1-methyl-1H-pyrazol-3-yl)amino) isonicotinic acid] |
| 100 to 1000 nM | Cc1c(Nc2cnccc2C(=O)O)cnn1C1CCN(C2CCC2)CC1 [Compound 96] |
| 1000 to 10000 nM | O=C(O)c1ccncc1Nc1cn(CCN2CCC(F)(F)CC2)nc1-c1ccccc1 [Compound 17, 3-((1-(2-(4,4-Difluoropiperidin-1-yl)ethyl)-3-phenyl-1H-pyrazol-4-yl)amino)isonicotinic acid] |
| 100 to 1000 nM | Cn1cc(Nc2cnccc2C(=O)O)c(-c2ccccc2)n1 [Compound 13, 3-((1-methyl-3-phenyl-1H-pyrazol-4-yl)amino) isonicotinic acid] |
| 100 to 1000 nM | O=C(O)c1ccncc1Nc1cc(-c2ccccc2)nn1-c1ccccc1 [Compound 21, 3-((1,3-Diphenyl-1H-pyrazol-5-yl)amino)isonicotinic acid] |
| 100 to 1000 nM | Cc1c(-c2ccccc2)nn(C)c1Nc1cnccc1C(=O)O [Compound 53, 3-((1,4-dimethyl-3-phenyl-1H-pyrazol-5-yl)amino)isonicotinic acid] |
| 10000 to 100000 nM | O=C(O)c1ccncc1Nc1c(-c2ccccc2)cnn1-c1ccccc1 [Compound 43, 3-((1,4-Diphenyl-1H-pyrazol-5-yl)amino)isonicotinic acid] |
| 100 to 1000 nM | Cc1c(Nc2cnccc2C(=O)O)cnn1C1CCCN(C)CC1 (centres unmarked) [Compound 112, 3-((5-methyl-1-(1-methylazepan-4-yl)-1H-pyrazol-4-yl)amino)isonicotinic acid] |
| 100 to 1000 nM | O=C(O)c1ccncc1Nc1nn(CCN2CCC(F)(F)CC2)cc1C1CCCCC1 [Compound 57, 3-((4-cyclohexyl-1-(2-(4,4-difluoropiperidin-1-yl)ethyl)-1H-pyrazol-3-yl)amino)isonicotinic acid] |
| 1 to 100 nM | Cn1ncc(-c2ccccc2F)c1Nc1cnccc1C(=O)O [Compound 12, 3-((4-(2-fluorophenyl)-1-methyl-1H-pyrazol-5-yl)amino) isonicotinic acid] |
| 100 to 1000 nM | CN1CCN(CCn2ncc(-c3ccccc3)c2Nc2cnccc2C(=O)O)CC1 [Compound 35, 3-((1-(2-(4-methylpiperazin-1-yl)ethyl)-4-phenyl-1H-pyrazol-5-yl)amino)isonicotinic acid] |
| 100 to 1000 nM | O=C(O)c1ccncc1Nc1cn(-c2ccccc2)nc1-c1ccccc1 [Compound 41, 3-((1,3-Diphenyl-1H-pyrazol-4-yl)amino)isonicotinic acid] |
| 100 to 1000 nM | Cc1cn(-c2ccccc2C#N)nc1Nc1cnccc1C(=O)O [Compound 71, 3-((1-(2-cyanophenyl)-4-methyl-1H-pyrazol-3-yl)amino) isonicotinic acid] |
| 100 to 1000 nM | O=C(O)c1ccncc1Nc1cc(-c2ccccc2)nn1C1CCOCC1 [Compound 23, 3-((3-Phenyl-1-(tetrahydro-2H-pyran-4-yl)-1H-pyrazol-5-yl)amino)isonicotinic acid] |
